Measurements taken from article PMC5454592, “Pharmacological and Toxicological Properties of the Potent Oral γ-Secretase Modulator BPN-15606” (The Journal of Pharmacology and Experimental Therapeutics, 2017).

Experiments:
[1] = Toxicokinetics in NHP (300 mg/kg repeat dose); format: in vivo, cynomolgus macaques; settings: cynomolgus monkey
Description: The objectives of this study were to determine the MTD of BPN-15606, characterize potential toxicity, and calculate toxicokinetic parameters of BPN-15606 in adult male and female cynomolgus macaques following daily po dose administration at a near-MTD dose of BPN-15606 for 7 consecutive days. In the dose escalation phase to establish the MTD (phase A), male and female cynomolgus macaques (n = 2/sex) were administered single doses of BPN-15606 at 3, 10, 30, 100, and 300 mg/kg, with 2 to 4 days between each dose escalation (Fig. 10). […] The plasma drug concentrations at the approximate Tmax increased in a dose-dependent manner. […] Comprehensive evaluation of clinical pathology parameters (clinical chemistry, hematology), gross pathology, and histopathologic parameters was carried out at SRI International, according to their standardized protocols. Tissues examined histopathologically included the following: liver, lung, stomach, duodenum, colon, spleen, pancreas, thymus, heart, brain, and kidney.

[2] = PK in nonhuman primates (i.v./po); format: in vivo; settings: male, cynomolgus monkey, plasma; cynomolgus monkeys; 2 mg/kg po vs 1 mg/kg i.v.
Description: Male non-naive cynomolgus monkeys (NHP) were administered BPN-15606 as a single nasogastric (po; 2 mg/kg) or i.v. (1 mg/kg) dose to assess oral bioavailability. Whole-blood samples were collected at specific time points and processed to plasma. Study in-life was conducted at Charles River Laboratories (Reno, NV). Pharmacokinetic (PK) plasma samples were shipped to SRI International for determination of drug concentrations. Samples were analyzed at SRI International using the bioanalytical method described above and validated for NHP plasma, and the LLOQ was 1 ng/ml. Data were subjected to noncompartmental analysis using WinNonlin Phoenix Model 200 (for extravascular administration) or Model 201 (for i.v. bolus administration) and the sparse sampling feature; a uniform weighting factor was applied to each data set. Time to maximum plasma concentration (Tmax) and maximum plasma concentration (Cmax) values were determined directly from the data. Area under the plasma concentration–time curve to the last time point (AUClast) values were calculated using the log/linear trapezoidal (i.v. dose) or linear up/log down trapezoidal (po dose). Values were calculated using the plasma data from composite groups. The dose administered was input to the program as mg/kg, and as a result no additional corrections for individual body weights of the animals were necessary. […]

[3] = Repeat-dose (9-day) efficacy study in rats; format: in vivo, Sprague–Dawley rats; settings: male, Sprague-Dawley, rat, in vivo
Description: (§1) Male C57BL/6J mice (n = 10/dose level) and male Sprague–Dawley rats (n = 14/dose level) were administered either vehicle (80% polyethylene glycol 400 v/v; 20% sterile water v/v and 0.1% Tween 20 v/v) or BPN-15606 (10, 25, and 50 mg/kg) once daily po for 7 consecutive days (mice) or 5, 25, and 50 mg/kg once daily po for 9 consecutive days (rats). […] Animals were sacrificed 4 hours following the dosing on day 7 of the 7-day oral treatment course (mice) and on day 9 of the 9-day oral treatment course (rats). Plasma and brain extracts were prepared (mice and rats); CSF was aspirated from the cisterna magnum with minimal to no blood contamination (rats only); and tissues were frozen at −70°C. Aβ peptides were quantitated in brain extracts and plasma (mice) or CSF and plasma (rats), as described previously, using Meso Scale multiplex kits and the Meso Scale Sector Imager 6000 ([Kounnas et al., 2010]). Statistical analysis was performed using GraphPad Prism software, and results are expressed as mean ± S.E.M. Analysis of variance was used to detect a significant effect. Drug levels of BPN-15606 were measured in plasma and brain extracts using the bioanalytical methods detailed above.

[4] = system: Aβ42 and Aβ40 levels; test: Repeat-dose (9-day) efficacy study in rats; format: in vivo, Sprague–Dawley rats
Description: as §1

[5] = target: γ-secretase (Homo sapiens, UniProt P49768); test: SHSY5Y-APP cell-based MSD Aβ triplex screening assay; design: endogenous in cells; host or cells: human SH-SY5Y neuroblastoma cells stably overexpressing human APP751 wild-type
Description: All Aβ assays, including the anti-Aβ immunoprecipitation/matrix-assisted laser desorption/ionization time of flight, were carried out as described previously ([Wagner et al., 2014]).

[6] = PK in mouse (i.v./po); format: in vivo; settings: male, plasma, CD-1 mice, 5 mg/kg po vs 1 mg/kg i.v.
Description: Male CD-1 mice and male Sprague–Dawley rats were administered a single dose of BPN-15606 by i.v. or oral gavage (po) dose routes to assess oral bioavailability. Mice and rats received BPN-15606 as a single i.v. dose at 1 mg/kg (n = 5) or a single po dose at 5 mg/kg (n = 5). Blood was collected from mice and rats at 5 (i.v. only), 15, and 30 minutes, and 1, 2, 4, 8, and 12 hours postdose for processing to plasma. For mice, brains were collected from both dose groups (i.v. and po) at 1, 4, 8, and 12 hours postdose. For rats, brains were collected from those same animals at the 12-hour time point only. […]
Data were subjected to noncompartmental analysis using WinNonlin Phoenix Model 200 (for extravascular administration) or Model 201 (for i.v. bolus administration) and the sparse sampling feature; a uniform weighting factor was applied to each data set. Time to maximum plasma concentration (Tmax) and maximum plasma concentration (Cmax) values were determined directly from the data. Area under the plasma concentration–time curve to the last time point (AUClast) values were calculated using the log/linear trapezoidal (i.v. dose) or linear up/log down trapezoidal (po dose). Values were calculated using the plasma data from composite groups. […] The volume of distribution at steady state and clearance were calculated using the i.v. group data. […]

COc1nc(-c2cc(C)c(N[C@@H](C)c3ccc(F)cc3)nn2)ccc1-n1cnc(C)c1 [BPN-15606, (S)-N-(1-(4-fluorophenyl)ethyl)-6-(6-methoxy-5-(4-methyl-1H-imidazol-1-yl)pyridin-2-yl)-4-methylpyridazin-3-amine]
half-life ([1]; both sexes, plasma, po, 300 mg/kg, cynomolgus macaques, 300 mg/kg po, day 1): 8.7 h
half-life ([1]; both sexes, plasma, po, 300 mg/kg, cynomolgus macaques, 300 mg/kg po, day 6): 10.2 h
Tmax ([1]; both sexes, plasma, cynomolgus macaques, 300 mg/kg po): 2 to 4 h
exposure (AUClast) day 6 relative to day 1 ([1]; both, in vivo, po, 300 mg/kg): about 1.7 fold
bioavailability [2]: 30.8%
NOAEL at 9 days [3]: 50 mg/kg
safety margin based on dose ([4]; rat, NOAEL 50 mg/kg vs lowest efficacious dose 5 mg/kg): ≥ 10 fold
lowering of CSF Aβ42 levels ([4]; rats, 5 mg/kg): ~40%
lowering of CSF Aβ42 levels ([4]; rats, 25 mg/kg): 70–75%
lowering of plasma Aβ42 ([4]; rats, 25 mg/kg): > 90%
clinical observations ([4]; rats, 5, 25, 50 mg/kg po daily for 9 days): all animals appeared normal throughout the study
AβTotal ([5]; SHSY5Y-APP cells): No change
IC50 ([5]; human SHSY5Y neuroblastoma cells stably overexpressing human APP751 wild-type, read-out: Aβ42 IC50): 7 nM
bioavailability [6]: > 60%
